Assay results from patent US10301267B2, “Compounds” (AstraZeneca AB, priority 2006, dated 2019).
Like-named read-outs stand apart in the source and are kept apart here.

How the values were obtained:
Type in all cases: biochemical
FGFR1 active kinase [1] = molecular target: T1, FGFR1 active kinase (Homo sapiens, UniProt P11362); test: FGFR Kinase assay - Caliper; as to FGFR Kinase assay - Caliper, IC50: 408 µM ATP
Procedure: FGFR Kinase Assay—Caliper
To determine inhibition of FGFR activity, kinase assays were conducted using Caliper technology.
Kinase activity assays were performed in Greiner 384-well low volume plates, with a total reaction volume of 12 ul per well. Final concentration of FGFR1 active kinase in each reaction well was 7.2 nM. The substrate for each assay was a custom peptide with fluorescent tag (13 amino acids in length, […] with the fluorescene tag on the first K).
Compounds were serially diluted in 5% (v/v) DMSO, before being added to assay plates. The Enzyme (at 7.2 nM [final]) and Substrate (at 3.6 uM [final]) were added separately to the compound plates, in reaction buffer [comprising: 50 mM MOPS (Sigma, Catalogue No. M1254)—pH 6.5, 0.004% Triton (Sigma, Catalogue No. X-100), 2.4 mM DTT, 12 mM MgCl2, 408 uM ATP] resulting in a final DMSO concentration in the reaction mix of 0.8%.
Assay plates were incubated at room temperature for 1.5 h, before the reaction was stopped with the addition of buffer [comprising: 100 mM HEPES—pH7.5, 0.033% Brij-35 (Sigma Catalogue No. B4184), 0.22% Caliper Coating Reagent #3 (Caliper Life Sciences Catalogue No. 760050), 88 mM EDTA, 5% DMSO]. Stopped assay plates were then read using the Caliper LabChip® LC3000 (which uses microfludics to measure a shift in mobility between fluorescent labelled peptide and the FGFR1 kinase—phosphorylated form of this peptide).
In the assay, compounds were tested at a range of concentrations.
(§1) Percentage inhibition at 1 uM, as expressed herein, is a calculated value based on the curve fit that was generated experimentally. From the fitted curve plot, the effect of compound at a concentration of 1 uM was calculated as a percentage inhibition. The IC50 is the concentration of compound, which inhibits FGFR1 kinase activity by 50% in the context of this assay.

[2] = molecular target: T2, His6-tagged FGFR kinase domain (Homo sapiens, UniProt P11362, C488A/C584S); test: FGFR Kinase assay - Elisa
T2 construct: FGFR kinase domain (amino acids 458-765, C488A, C584S) N-terminally fused to a His6-tag and TEV cleavage site; His6-tag plus linker and TEV cleavage site (printed as X1); made in house
T2 sequence (P11362 458-765 C488A/C584S): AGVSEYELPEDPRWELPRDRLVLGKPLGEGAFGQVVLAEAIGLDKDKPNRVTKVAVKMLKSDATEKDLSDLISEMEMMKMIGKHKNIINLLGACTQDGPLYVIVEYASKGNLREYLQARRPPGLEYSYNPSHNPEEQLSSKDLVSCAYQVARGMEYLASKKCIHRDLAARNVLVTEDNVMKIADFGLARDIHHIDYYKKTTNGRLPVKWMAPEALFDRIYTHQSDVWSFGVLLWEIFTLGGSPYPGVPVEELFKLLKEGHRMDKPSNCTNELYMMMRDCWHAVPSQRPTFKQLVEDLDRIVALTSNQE
Procedure: To determine inhibition of FGFR activity, kinase assays were conducted using ELISA (Enzyme-Linked Immunosorbent Assay) technology.
Kinase activity assays were performed in 384-well polypropylene plates (Matrix, Catalogue No. 4311. Matrix are part of Thermo Fisher Scientific, 22 Friars Drive, Hudson, N.H. 03051, USA) with a total volume of 40 μl in each well. Each well was coated with 2 μg of polyEAY substrate (Sigma, Catalogue No. P3899) at 4° C. overnight. The plates were then washed once with 100 μl PBS and once with 100 μl 50 mM HEPES (pH 7.4) prior to the addition of the kinase assay reagents. Reactions contained His6-tagged FGFR kinase domain (FGFR kinase domain (amino acids 458-765, C488A, C584S) N-terminally fused to a His6-tag and TEV cleavage site encoded by the following sequence; [[…]]. The final alanine denotes the start of the FGFR protein sequence. The resultant protein was expressed and purified based on Mohammadi et al, Cell Vol 86, 577-587 (1996). Each kinase reaction contained 0.1 ng His6-tagged FGFR kinase domain, 50 mM HEPES (pH 7.4), 0.1 mM Na3VO4, 0.1 mM DTT, 0.05% (v/v) Triton X100, 20 mM MgCl2, 160 μM ATP. Various concentrations of test compounds were each added in 5% (v/v) DMSO to yield a final assay DMSO concentration of 1.25% (v/v). The kinase reactions were incubated at room temperature for 45 minutes and stopped by washing the plate three times with 100 μl PBS plus 0.05% Tween. 40 μl of a one in 10000 dilution of 4G10-HRP antibody (Upstate Biotechnology, UBI 16-105. Upstate are part of Millipore Corporation, 290 Concord Road, Billerca Mass. 01821 USA) made up in 0.5% (w/v) BSA/PBS was then added to each well and the plates incubated at room temperature for one hour. Following this, the plates were then washed repeatedly with 100 μl PBS plus 0.05% Tween to remove all traces of the antibody solution. 40 μl of 50 μg/ml 3,3′,5,5′-Tetramethylbenzidine (Sigma, Catalogue No. T2885), 0.05M phosphate-citrate buffer, containing 0.03% sodium perborate was added to each well and the plates incubated at room temperature for twelve minutes. The colour reaction was stopped by the addition of 20 μl 2M H2SO4 and the plates read at 450 nm on a Spectrafluor Plus (Tecan Trading AG, Switzerland). In the assay, compounds were tested at a range of concentrations.
as §1, with “IC50 value” for “IC50”, “test compound that” for “compound, which”, “50% of FGFR” for “FGFR1”, “activity.” for “activity by 50% in the context of this assay.”

FGFR1 active kinase [3] = molecular target: T1, FGFR1 active kinase; test: FGFR Kinase assay - Caliper Echo Dosing; details: FGFR1 7.2 nM, 408 uM ATP, acoustic dosing; geometric mean of n
[4] = FGFR1 […], 408 uM ATP, mean of n as printed, read-out: FGFR Kinase assay - Caliper, IC50
[5] = FGFR inhibition test, Caliper, read-out: Activity class (FGFR Kinase assay - Caliper)
[6] = FGFR inhibition test, Elisa, read-out: Activity class (FGFR Kinase assay - Elisa)

T1 sequence (P11362 22-822): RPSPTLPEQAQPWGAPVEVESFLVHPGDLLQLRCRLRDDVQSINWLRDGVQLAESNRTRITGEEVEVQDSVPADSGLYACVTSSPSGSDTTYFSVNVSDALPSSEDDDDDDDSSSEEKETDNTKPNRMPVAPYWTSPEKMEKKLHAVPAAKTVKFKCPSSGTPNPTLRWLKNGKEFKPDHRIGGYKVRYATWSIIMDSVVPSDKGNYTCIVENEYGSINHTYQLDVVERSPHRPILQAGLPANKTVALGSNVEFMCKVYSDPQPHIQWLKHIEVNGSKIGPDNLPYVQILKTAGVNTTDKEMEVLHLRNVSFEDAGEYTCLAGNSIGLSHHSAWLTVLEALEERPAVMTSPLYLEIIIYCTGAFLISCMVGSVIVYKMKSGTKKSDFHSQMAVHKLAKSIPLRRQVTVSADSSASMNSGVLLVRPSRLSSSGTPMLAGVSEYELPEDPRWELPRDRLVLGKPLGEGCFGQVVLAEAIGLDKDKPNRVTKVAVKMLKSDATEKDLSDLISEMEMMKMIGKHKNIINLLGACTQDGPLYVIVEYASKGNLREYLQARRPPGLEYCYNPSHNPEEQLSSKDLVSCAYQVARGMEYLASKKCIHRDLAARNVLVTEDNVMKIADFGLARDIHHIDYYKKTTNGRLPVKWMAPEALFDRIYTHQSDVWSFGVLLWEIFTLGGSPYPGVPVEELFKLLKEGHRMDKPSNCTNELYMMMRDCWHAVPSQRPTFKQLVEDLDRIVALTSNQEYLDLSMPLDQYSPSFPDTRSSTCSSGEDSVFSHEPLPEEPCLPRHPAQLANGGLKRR

Compound | IC50 (FGFR1 active kinase [1]; [4]) [nM] | IC50 (FGFR1 active kinase [1]; [5]) [nM] | IC50 [2, 6] [nM] | IC50 (FGFR1 active kinase [3]) [nM] | IC50 ([2]; polyEAY substrate, 160 μM ATP, read-out: FGFR Kinase assay - Elisa, IC50) [nM]
COc1cc(CCc2cc(NC(=O)c3ccc(N4CCOCC4)cc3)[nH]n2)cc(OC)c1 [Example 4, N-[5-[2-(3,5-dimethoxyphenyl)ethyl]-2H-pyrazol-3-yl]-4-morpholin-4-yl-benzamide] | 68 | < 300 | < 300 |  | 
COc1cccc(CCc2cc(NC(=O)c3ccc(S(C)(=O)=O)cc3)[nH]n2)c1 [Example 15, N-[5-[2-(3-Methoxyphenyl)ethyl]-2H-pyrazol-3-yl]-4-methylsulfonyl-benzamide] | 110 | < 300 | < 300 |  | 
C#CCNc1ccc(C(=O)Nc2cc(CCc3cccc(OC)c3)n[nH]2)nc1 [Example 17, N-[5-[2-(3-Methoxyphenyl)ethyl]-2H-pyrazol-3-yl]-5-(prop-2-ynylamino)pyridine-2-carboxamide] | 660 | 300 to 1000 | 300 to 1000 |  | 
COc1ccc(C(=O)Nc2cc(CCc3cc(OC)cc(OC)c3)n[nH]2)cc1 [Example 3, N-[5-[2-(3,5-dimethoxyphenyl)ethyl]-2H-pyrazol-3-yl]-4-methoxy-benzamide] | 132 | < 300 | < 300 |  | 
COCCOc1cccc(CCc2cc(NC(=O)c3ccc(N4CCN(C)CC4)cc3)[nH]n2)c1 [Example 6, N-[5-[2-[3-(2-methoxyethoxy)phenyl]ethyl]-2H-pyrazol-3-yl]-4-(4-methylpiperazin-1-yl)benzamide] | 58 | < 300 | < 300 |  | 
COc1cc(CCc2cc(NC(=O)c3cnc(N4CCN(C)CC4)nc3)[nH]n2)cc(OC)c1 [Example 85, N-[5-[2-(3,5-Dimethoxyphenyl)ethyl]-2H-pyrazol-3-yl]-2-(4-methylpiperazin-1-yl)pyrimidine-5-carboxamide] | 118 |  |  | 14.9 | 
COc1cccc(CCc2cc(NC(=O)c3cnc(C)cn3)[nH]n2)c1 [Example 16, N-[5-[2-(3-Methoxyphenyl)ethyl]-2H-pyrazol-3-yl]-5-methyl-pyrazine-2-carboxamide] | 750 | 300 to 1000 | 300 to 1000 |  | 
COc1cc(COc2cc(NC(=O)c3ccc(N4CCN(C)CC4)cc3)[nH]n2)cc(OC)c1 [Example 12, N-[5-[(3,5-dimethoxyphenyl)methoxy]-2H-pyrazol-3-yl]-4-(4-methylpiperazin-1-yl)benzamide] |  |  | < 300 |  | 60
COc1cc(CCc2cc(NC(=O)c3ccc(N4CCN(C5CC5)CC4)cc3)n[nH]2)cc(OC)c1 [Example 88, 4-(4-Cyclopropylpiperazin-1-yl)-N-[5-[2-(3,5-dimethoxyphenyl)ethyl]-1H-pyrazol-3-yl]benzamide] | 156 |  |  | 0.77 | 
COc1cc(CCc2cc(NC(=O)c3ccc(CN4CCC(F)CC4)cc3)[nH]n2)cc(OC)c1 [Example 5, N-[5-[2-(3,5-dimethoxyphenyl)ethyl]-2H-pyrazol-3-yl]-4-[(4-fluoropiperidin-1-yl)methyl]benzamide] | 63 | < 300 | < 300 |  | 
COCCN1CCC(c2ccc(C(=O)Nc3cc(CCc4cc(OC)cc(OC)c4)n[nH]3)cc2)CC1 [Example 148, N-[5-[2-(3,5-dimethoxyphenyl)ethyl]-2H-pyrazol-3-yl]-4-[1-(2-methoxyethyl)piperidin-4-yl]benzamide] |  |  |  | 0.87 | 
COc1cc(COc2cc(NC(=O)c3cnc(N4CCN(C5CC5)CC4)cn3)[nH]n2)cc(OC)c1 [Example 109, 5-(4-Cyclopropylpiperazin-1-yl)-N-[5-[(3,5-dimethoxyphenyl)methoxy]-2H-pyrazol-3-yl]pyrazine-2-carboxamide] |  |  |  | 3 | 
COc1cc(CCc2cc(NC(=O)c3cnc(N4CCCN(C)CC4)cn3)[nH]n2)cc(OC)c1 [Example 163, N-[5-[2-(3,5-dimethoxyphenyl)ethyl]-2H-pyrazol-3-yl]-5-(4-methyl-1,4-diazepan-1-yl)pyrazine-2-carboxamide] |  |  |  | 1.8 | 
COc1cc(CCc2cc(NC(=O)c3cnc(N4C[C@@H](C)N(C)[C@@H](C)C4)nc3)[nH]n2)cc(OC)c1 [Example 136, N-[5-[2-(3,5-dimethoxyphenyl)ethyl]-2H-pyrazol-3-yl]-2-[(3R,5S)-3,4,5-trimethylpiperazin-1-yl]pyrimidine-5-carboxamide] |  |  |  | 1.9 | 
COc1cc(COc2cc(NC(=O)c3ccc(N4CCN5CCCC5C4)s3)[nH]n2)cc(OC)c1 (centres unmarked) [Example 121, 5-(3,4,6,7,8,8a-hexahydro-1H-pyrrolo[2,1-c]pyrazin-2-yl)-N-[5-[(3,5-dimethoxyphenyl)methoxy]-2H-pyrazol-3-yl]thiophene-2-carboxamide] |  |  |  | 0.79 | 
COc1cc(COc2cc(NC(=O)c3ccc(N4CCN(C)C(C)C4)s3)[nH]n2)cc(OC)c1 (centres unmarked) [Example 97, N-[5-[(3,5-dimethoxyphenyl)methoxy]-2H-pyrazol-3-yl]-5-(3,4-dimethylpiperazin-1-yl)thiophene-2-carboxamide] |  |  |  | 0.46 | 
COc1cc(COc2cc(NC(=O)c3ccc(N4C[C@@H](C)N[C@@H](C)C4)cc3)[nH]n2)cc(OC)c1 [Example 100, N-[5-[(3,5-dimethoxyphenyl)methoxy]-2H-pyrazol-3-yl]-4-[(3R,5S)-3,5-dimethylpiperazin-1-yl]benzamide] |  |  |  | 1.4 | 
COc1cc(CCc2cc(NC(=O)c3cnc(N4CCN5CCCCC5C4)nc3)[nH]n2)cc(OC)c1 (centres unmarked) [Example 127, 2-(1,3,4,6,7,8,9,9a-octahydropyrido[2,1-c]pyrazin-2-yl)-N-[5-[2-(3,5-dimethoxyphenyl)ethyl]-2H-pyrazol-3-yl]pyrimidine-5-carboxamide] |  |  |  | 2.9 | 
COc1cc(COc2cc(NC(=O)c3cnc(N4CCN5CCCCC5C4)nc3)[nH]n2)cc(OC)c1 (centres unmarked) [Example 119, 2-(1,3,4,6,7,8,9,9a-Octahydropyrido[2,1-c]pyrazin-2-yl)-N-[5-[(3,5-dimethoxyphenyl)methoxy]-2H-pyrazol-3-yl]pyrimidine-5-carboxamide] |  |  |  | 3.3 | 
COc1cc(CCc2cc(NC(=O)c3cnc(C4CCN(C)CC4)nc3)[nH]n2)cc(OC)c1 [Example 162, N-[5-[2-(3,5-dimethoxyphenyl)ethyl]-2H-pyrazol-3-yl]-2-(1-methylpiperidin-4-yl)pyrimidine-5-carboxamide] |  |  |  | 36 | 
COc1cc(CCc2cc(NC(=O)c3cnc(N4CCN(C)C(C)C4)cn3)[nH]n2)cc(OC)c1 (centres unmarked) [Example 123, N-[5-[2-(3,5-Dimethoxyphenyl)ethyl]-2H-pyrazol-3-yl]-5-(3,4-dimethylpiperazin-1-yl)pyrazine-2-carboxamide] |  |  |  | 2.2 | 
